≈ marks a conversion by molar mass, not a printed value. Read-outs that look alike come from different tables or passages of the source.
What was measured:
Assay type in all cases: cell-based, Helicobacter pylori
H. pylori [1] = experiment: MIC and MBC by microbroth dilution assay; settings: Helicobacter pylori
Procedure: The compounds, serially diluted ([…]) in Muller Hinton broth containing 5% FCS, were incubated in 96-well microtitre plate containing fresh cultures of HP001 (˜5.5×10^6 CFU/mL) or ATCC® 43504 (2.65×10^6 CFU/ml) in a final volume of […]. After 72-h of incubation under microaerophilic condition at 37° C., […] of cultures wherein no growth had been detected were streaked on fresh brain heart infusion agar plates for MBC determination.
In microbroth dilution assay employing one clinical and one standard strain, both the bacteriostatic and the bactericidal values were determined for all four compounds as well as for clarithromycin (Table 4). Two-fold serial dilutions were prepared in 96-well microtitre plate containing a total volume of 0.1 mL Mueller Hinton broth supplemented with 5% FCS. A 3-day old liquid culture was diluted 10 times in Mueller Hinton broth and 0.1 mL of these cultures was inoculated into each well to give a final concentration of ˜10^6 CFU/mL. The plates were incubated for 3 days in a microaerophilic atmosphere at 37° C. Following incubation, the plates were examined visually, and the lowest concentration showing complete inhibition of growth was recorded as the MIC of the respective compound (Hachem et al., 1996). Aliquots (0.1 mL) of 72-h culture in which no growth had been detected were taken from the wells of the above microtitre plates and used to streak on fresh BHI agar plates.

H. pylori [2] = experiment: Time kill kinetic analyses in biphasic culture; settings: for killing at MIC dose (1×MIC): HP001, up to 36 h
H. pylori [3] = experiment: Anti H. pylori screening by disc diffusion susceptibility assay; settings: 72 h; for Inhibition zone diameter (score): 100 and 200 mg/disc (so in the source)
Procedure: The discs were impregnated with […] of each of the compounds, dissolved either in ethanol or DMSO, and the zone of inhibition was measured after 72 h of growth under microaerophilic conditions at 37° C. Inhibition zone diameter ranging 10-20 mm was given a score of ^+, 20-30 mm as ^++ and that of >30 mm as ^+++, as obtained employing dose range of […]/disc. The detailed structural information of the molecules is provided under ‘Description of the Compounds’.
Methods and protocols for the determination of inhibition zone diameter are as stated under Experiment 1, and that of MIC values by microbroth dilution assay as in Experiment 3. ‘Nil’ means zone of inhibition below 10 mm.
The anti H. pylori activity of all 16 flavonoid molecules, 2 naturally isolated and 14 synthetic derivatives, was screened by disc diffusion sensitivity assay employing 2 clinical strains HP001 and HP002, and three standard strains ATCC® 700392, 43504 and 49503. A 0.5 mL inoculum (10^8 CFU/mL) for each bacterial strain tested was flooded on freshly prepared Brain Heart Infusion (BHI) agar plates supplemented with 7% FCS, 0.5% IsoVitalex and 0.0025% DENT® and the discs (5 mm diameter) containing different compounds or antibiotics (dissolved either in ethanol or DMSO) were placed on the agar surface. After incubation for 3 days in a microaerophilic atmosphere at 37° C., the diameter of the zone of inhibition was measured (Glupczynsky, 1996; McNulty et al., 2002).

H. pylori [4] = experiment: Anti H. pylori spectrum (MIC) by agar dilution method; settings: Helicobacter pylori; for MIC50: MIC against 50% of the strains of the panel, read-out: MIC50
Procedure: MIC was determined using agar dilution assay following the CLSI® guidelines. Six clinical isolates and four standard strains were used for this study. Five microlitre of freshly grown 3-day old culture (˜1×10^8 CFU/mL) was streaked in plates containing 2-fold serial dilution of the compounds ranging […], and incubated under microaerophilic condition at 37° C. After 72 h, the plates were inspected visually for absence of growth to assess the MIC values. The experiment was performed in duplicates. MIC50 is defined as the dose (μg/ml) required for killing 50% of the strains.
Plates contained two-fold serial dilutions of the compounds ranging from […]. Five microlitres of 3-day old freshly grown H. pylori culture (^˜10^8 CFU/mL) was inoculated onto drug-containing BHI agar plates supplemented with 7% FCS, 0.5% IsoVitalex and 0.0025% DENT®, which were then incubated for 3 days under microaerophilic condition at 37° C.

H. pylori [5] = experiment: Acid stability study (pH ~2.0, 2 h, then MIC/MBC by microbroth dilution); settings: Helicobacter pylori
Procedure: Details of experimental protocol are described under Experiment 7. MIC/MBC values were determined by microbroth dilution assay.
A 100 μL stock of CPP-1, NMC-1, NMC-2 and CPP-3 (1-2 mg/mL) was treated with 20-30 μL of 0.12 NHCl to bring the pH of the solution to ^˜2.0, and kept at 25° C. for 2 h (Funatogawa et al., 2004). Such acid-treated samples were then serially diluted (2 fold) with medium in 96-well microtitre plates to determine the MIC and the MBC values by microbroth dilution assay as detailed under Experiment 3.

[6] = ATCC43504, microbroth dilution, ATCC 43504
[7] = 72 h, panel of 6 clinical isolates and 4 standard strains, read-out: MIC Range
[8] = clinical strain HP001, read-out: MIC
[9] = clinical strain HP002, read-out: MIC
[10] = clinical strain HP003, read-out: MIC
[11] = clinical strain HP004, read-out: MIC
[12] = clinical strain HP005, read-out: MIC
[13] = clinical strain HP006, read-out: MIC
[14] = standard strain 43504, read-out: MIC
[15] = standard strain 43629, read-out: MIC
[16] = standard strain 49503, read-out: MIC
[17] = standard strain 700392, read-out: MIC
[18] = 2 h, pH ~2.0, 2 h, 25° C., 43504, read-out: MBC, Acid treated
[19] = 2 h, pH ~2.0, 2 h, 25° C., 43504, read-out: MIC, Acid treated
[20] = 2 h, pH ~2.0, 2 h, 25° C., HP001, read-out: MBC, Acid treated
[21] = 2 h, pH ~2.0, 2 h, 25° C., HP001, read-out: MIC, Acid treated
[22] = not acid treated, 43504, read-out: MBC, Control
[23] = not acid treated, 43504, read-out: MIC, Control
[24] = not acid treated, HP001, read-out: MBC, Control
[25] = not acid treated, HP001, read-out: MIC, Control

Row | SMILES | MBC (H. pylori [1]; [6]) [µg/mL] | MIC (H. pylori [1]; [6]) [µg/mL] | MBC (H. pylori [1]; microbroth dilution, HP001) [µg/mL] | MIC (H. pylori [1]; microbroth dilution, HP001) [µg/mL] | killing at MIC dose (1×MIC) (H. pylori [2]) | Inhibition zone diameter (score) (H. pylori [3]; ATCC standard strain 43504) | Inhibition zone diameter (score) (H. pylori [3]; ATCC standard strain 49503) | Inhibition zone diameter (score) (H. pylori [3]; ATCC standard strain 700392) | Inhibition zone diameter (score) (H. pylori [3]; clinical strain HP001) | Inhibition zone diameter (score) (H. pylori [3]; clinical strain HP002) | MIC50 (H. pylori [4]; 72 h) [µg/mL] | MIC (H. pylori [4]; [7]) [µg/mL] | MIC50 (H. pylori [4]) [µg/mL] | MIC (H. pylori [4]; [8]) [µg/mL] | MIC (H. pylori [4]; [9]) [µg/mL] | MIC (H. pylori [4]; [10]) [µg/mL] | MIC (H. pylori [4]; [11]) [µg/mL] | MIC (H. pylori [4]; [12]) [µg/mL] | MIC (H. pylori [4]; [13]) [µg/mL] | MIC (H. pylori [4]; [14]) [µg/mL] | further results
1 | O=c1cc(-c2ccccc2)oc2cc(OCCCCN3CCCCC3)cc(O)c12 [CPP-3, 5-Hydroxy-2-phenyl-7-(4-piperidin-1-yl-butoxy)-chromen-4-one] | 25 (≈ 63.5 µM) | 12.5 (≈ 31.8 µM) | 25 (≈ 63.5 µM) | 12.5 (≈ 31.8 µM) | could not exert any effect on bactericidal activity | ++ (20-30 mm as ^++) | ++ (20-30 mm as ^++) | ++ (20-30 mm as ^++) | ++ (20-30 mm as ^++) | +++ (that of >30 mm as ^+++) | ~12.5 (≈ 31.8 µM) | 6.25 to 100 (≈ 15.9 to 254 µM) | 12.5 (≈ 31.8 µM) | 25 (≈ 63.5 µM) | 25 (≈ 63.5 µM) | < 12.5 | < 12.5 | < 12.5 | < 12.5 | 12.5 (≈ 31.8 µM) | time to kill the bacteria totally (H. pylori [2]; ATCC 43504, 50 μg/mL): about 12 h; time to complete killing (H. pylori [2]; ATCC 43504, 2×MIC (clarithromycin 0.08, CPP-1 and NMC-1 12.5, NMC-2 and CPP-3 25 μg/mL)): about 12 h; killing at MIC dose (H. pylori [2]; ATCC 43504, MIC ([…])): no killing potency; zone of inhibition at 100 µg/disc (H. pylori [3]; Helicobacter pylori, 100 and 200 μg/disc, majority of the strains, read-out: Activity class by inhibition zone diameter): > 30 mm; MIC (H. pylori [4]; [15]): 100 µg/mL (≈ 254 µM); MIC (H. pylori [4]; [16]): 25 µg/mL (≈ 63.5 µM); MIC (H. pylori [4]; [17]): 25 µg/mL (≈ 63.5 µM); MBC (H. pylori [5]; [18]): < 50000 µg/mL; MIC (H. pylori [5]; [19]): 50000 µg/mL (≈ 127000 µM); MBC (H. pylori [5]; [20]): 50000 µg/mL (≈ 127000 µM); MIC (H. pylori [5]; [21]): 25000 µg/mL (≈ 63500 µM); MBC (H. pylori [5]; [22]): 25000 µg/mL (≈ 63500 µM); MIC (H. pylori [5]; [23]): 12500 µg/mL (≈ 31800 µM); MBC (H. pylori [5]; [24]): 25000 µg/mL (≈ 63500 µM); MIC (H. pylori [5]; [25]): 12500 µg/mL (≈ 31800 µM)
2 | CN1CCN(CCCCCCOc2cc(O)c3c(=O)cc(-c4ccccc4)oc3c2)CC1 [NMC-1, 5-Hydroxy-7-[6-(4-methyl-piperazin-1-yl)-hexyloxy]-2-phenyl-chromen-4-one] | 25 (≈ 57.3 µM) | 6.25 (≈ 14.3 µM) | 12.5 (≈ 28.6 µM) | 6.25 (≈ 14.3 µM) | could not however exert complete killing even at 36 h | + (Inhibition zone diameter ranging 10-20 mm was given a score of ^+) | + (Inhibition zone diameter ranging 10-20 mm was given a score of ^+) | + (Inhibition zone diameter ranging 10-20 mm was given a score of ^+) | + (Inhibition zone diameter ranging 10-20 mm was given a score of ^+) | ++ (20-30 mm as ^++) | ~6.25 (≈ 14.3 µM) | 6.25 to 12.5 (≈ 14.3 to 28.6 µM) | 6.25 (≈ 14.3 µM) | 12.5 (≈ 28.6 µM) | 6.25 (≈ 14.3 µM) | < 6.25 | < 6.25 | < 6.25 | < 6.25 | < 12.5 | decrease in cell count within 36 h (H. pylori [2]; ATCC 43504, at MIC value (6.25 μg/mL)): 1 log; MIC (H. pylori [4]; [15]): 12.5 µg/mL (≈ 28.6 µM); MIC (H. pylori [4]; [16]): 6.25 µg/mL (≈ 14.3 µM); MIC (H. pylori [4]; [17]): 12.5 µg/mL (≈ 28.6 µM); MBC (H. pylori [5]; [18]): < 25000 µg/mL; MIC (H. pylori [5]; [19]): 25000 µg/mL (≈ 57300 µM); MBC (H. pylori [5]; [20]): 25000 µg/mL (≈ 57300 µM); MIC (H. pylori [5]; [21]): 12500 µg/mL (≈ 28600 µM); MBC (H. pylori [5]; [22]): 25000 µg/mL (≈ 57300 µM); MIC (H. pylori [5]; [23]): 6250 µg/mL (≈ 14300 µM); MBC (H. pylori [5]; [24]): 12500 µg/mL (≈ 28600 µM); MIC (H. pylori [5]; [25]): 6250 µg/mL (≈ 14300 µM)

Source: patent US9642854B2, “Flavanoid compounds and process for preparation thereof” (Council of Scientific & Industrial Research, priority 2009, dated 2017)
